≈ marks a conversion by molar mass, not a printed value. Where “and” joins values, the source holds several entries; their conditions need not be identical. Equal entries are not always repeated. Where two headings read alike, the source gives them in different places.
Experiments:
CHI Log D procedure = type: physicochemical; conditions: for CHI Log D: pH 7.4; for chromatographic logD: pH 7.4, CHI Log D
[1] = test system: TCF/LEF luciferase Reporter in DLD1 cells; test: TCF reporter assay (DLD1 TCF/LEF luciferase reporter, Bright-Glo); type: cell-based; conditions: for DLD1 TCF c2 BrightGlo % Inhibition: replicates
Outline: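 DLD1 cells stably carrying a TCF/LEF luciferase reporter were plated at 5000 cells/well in RPMI + 4% FBS and treated overnight with a 1:2 compound dilution series. Bright-Glo luminescence read on day 3; viability by CellTiter-Glo. Absolute IC50 determined.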

[2] = biological target: T1, full-length beta-Catenin (Uniprot ID P35222) (Homo sapiens, UniProt P35222); test: Fluorescence polarization IC50 (beta-catenin / 5FAM-TCF4 10-53 competition); type: binding
T1 construct: 10 nM full-length beta-Catenin (Uniprot ID P35222)
T1 sequence (P35222 1-781): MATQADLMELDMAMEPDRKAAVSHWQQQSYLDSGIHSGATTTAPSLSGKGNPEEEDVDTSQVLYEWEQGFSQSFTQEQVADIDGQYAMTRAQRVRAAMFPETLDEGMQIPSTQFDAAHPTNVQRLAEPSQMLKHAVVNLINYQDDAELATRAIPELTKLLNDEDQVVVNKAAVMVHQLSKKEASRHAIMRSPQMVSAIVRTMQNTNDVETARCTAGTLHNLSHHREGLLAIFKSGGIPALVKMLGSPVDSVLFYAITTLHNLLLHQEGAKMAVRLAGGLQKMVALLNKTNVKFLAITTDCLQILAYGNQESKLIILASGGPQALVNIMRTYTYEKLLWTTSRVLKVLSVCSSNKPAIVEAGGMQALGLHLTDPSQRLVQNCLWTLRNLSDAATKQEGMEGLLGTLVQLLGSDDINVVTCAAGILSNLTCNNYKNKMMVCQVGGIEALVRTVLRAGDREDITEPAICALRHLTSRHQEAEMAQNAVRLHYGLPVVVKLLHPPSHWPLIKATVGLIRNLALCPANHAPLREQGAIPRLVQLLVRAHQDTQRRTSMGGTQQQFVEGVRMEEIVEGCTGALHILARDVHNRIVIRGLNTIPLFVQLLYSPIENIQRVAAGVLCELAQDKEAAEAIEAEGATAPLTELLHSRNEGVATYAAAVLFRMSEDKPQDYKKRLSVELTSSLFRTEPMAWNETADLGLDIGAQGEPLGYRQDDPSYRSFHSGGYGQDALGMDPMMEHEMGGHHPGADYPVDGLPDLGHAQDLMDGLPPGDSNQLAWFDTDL

Solubility in PBS = type: physicochemical
Outline: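 HPLC quantitation of peptide remaining in the PBS supernatant after ultracentrifugation, referenced to a 50 μM solution in DMSO.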

[3] = biological target: T2, beta-catenin/TCF4 engagement (Homo sapiens, UniProt P35222); test: Nano-BRET target engagement assay (B-cat-Halo & TCF4-Luc in HEK293 cells); type: cell-based
T2 construct: expressed in transfected cells; host or cells: HEK293
T2 sequence (P35222 1-781): T1 sequence (P35222 1-781)

[4] = absolute IC50, read-out: DLD1 reporter assay Abs IC50
[5] = read-out: DLD1 4% Abs IC50, DLD1 4%
[6] = absolute IC50, read-out: NanoBRET Abs IC50

Structure (SMILES) | CHI Log D (CHI Log D procedure) | IC50 [1, 4] | IC50 [1, 5] | IC50 ([2]; read-out: beta-Catenin FP IC50) | Solubility (Solubility in PBS) | IC50 [3, 6] | IC50 ([3]; read-out: NanoBRET Abs IC50) | chromatographic logD (CHI Log D procedure) | IC50 ([3]; read-out: NanoBRET IC50) | other results
CC(=O)N1CCC[C@]12CC=CCCCC1(CCCC=CCCCCCC[C@@](C)(C(=O)N[C@@H](Cc3ccccc3Cl)C(=O)N[C@@H](Cc3csc4ccccc34)C(=O)N[C@@H](CCO)C(N)=O)NC(=O)[C@H](CO)NC(=O)[C@H](Cc3ccccc3)NC(=O)[C@H](C)NC(=O)[C@H](C)NC(=O)[C@H](CN(CC(=O)O)CC(F)(F)F)NC(=O)[C@H](CC(=O)O)NC1=O)NC(=O)[C@H](CC(C)(C)C)NC(=O)[C@H](CC(=O)O)NC2=O (single isomer, unassigned) [I-999, Ac-PL3-Asp-Npg-B5-Asp-TfeGA-Ala-Ala-Phe-Ser-S8-2C1F-BztA-Hse-NH2] | 2.941 | 11.1 µM | 5.6 µM | 0.026 µM | 30 µM (≈ 58.8 µg/mL) | 26.3 µM | 26.3 µM | – | – | DLD1 TCF c2 BrightGlo % Inhibition ([1]; first dose = 20 uM (plate map), 20 µM): 63.2% and 71.4% and 68.9%; DLD1 TCF c2 BrightGlo % Inhibition ([1]; 0.625 µM): 7.7% and 8.8% and 6.4%; DLD1 TCF c2 BrightGlo % Inhibition ([1]; 1.25 µM): 1.7% and 8.0% and 4.0%; DLD1 TCF c2 BrightGlo % Inhibition ([1]; 2.5 µM): 14.3% and 11.9% and 4.4%; DLD1 TCF c2 BrightGlo % Inhibition ([1]; 10 µM): 42.0% and 49.2% and 49.7%; DLD1 TCF c2 BrightGlo % Inhibition ([1]; third dose = 5 uM (plate map), 5 µM): 18.2% and 32.5% and 23.9%; IC50 ([2]; fluorescence polarization, beta-catenin, read-out: FP EC50): 0.026 µM
CC(=O)N1CCC[C@]12CC=CCCCC1(CCCC=CCCCOC(=O)N3CC[C@@](C(=O)N[C@@H](Cc4ccccc4Cl)C(=O)N[C@@H](Cc4csc5ccccc45)C(=O)N[C@@H](C(N)=O)[C@H](C)O)(C3)NC(=O)[C@H](CC(N)=O)NC(=O)[C@H](Cc3ccccc3)NC(=O)[C@H](C)NC(=O)[C@H](C)NC(=O)[C@H](CC(=O)O)NC(=O)[C@H](CC(=O)O)NC1=O)NC(=O)[C@H](CC(C)(C)C)NC(=O)[C@H](CC(=O)O)NC2=O (stereo partly drawn) [I-1028, Ac-PL3-Asp-Npg-B5-Asp-Asp-Ala-Ala-Phe-Asn-PyrS2-2C1F-BztA-dThr-NH2] | – | 6.4 µM | 3.6 µM | 0.013 µM | 10 µM (≈ 19.2 µg/mL) | 8.7 µM | – | 2.4 | – | –
CC(=O)N1CCC[C@]12CC=CCCCC1(CCCC=CCCCOC(=O)N3CC[C@@](C(=O)N[C@@H](Cc4ccsc4)C(=O)N[C@@H](Cc4csc5ccccc45)C(=O)N[C@@H](CCC(N)=O)C(N)=O)(C3)NC(=O)[C@H](CCO)NC(=O)[C@H](Cc3ccccc3)NC(=O)[C@H](C)NC(=O)[C@H](C)NC(=O)[C@H](CC(=O)O)NC(=O)[C@H](CC(=O)O)NC1=O)NC(=O)[C@H](CC(C)(C)C)NC(=O)[C@H](CC(=O)O)NC2=O (stereo partly drawn) [I-803, Ac-PL3-Asp-Npg-B5-Asp-Asp-Ala-Ala-Phe-Hse-PyrS2-3Thi-BztA-Gln-NH2] | – | – | 9 µM | 0.005 µM | – | – | 9.6 µM | 2.03 | 9 µM | Solubility (Solubility in PBS; Solubility (uM)): 40 µM (≈ 76.2 µg/mL)
CC(=O)N1CCC[C@]12CC=CCCCC1(CCCC=CCCCCCC[C@@](C)(C(=O)N[C@@H](Cc3ccccc3)C(=O)N[C@@H](Cc3csc4ccccc34)C(=O)N[C@@H](CCC(N)=O)C(N)=O)NC(=O)[C@H](CCC(N)=O)NC(=O)[C@H](Cc3ccccc3)NC(=O)[C@H](C)NC(=O)[C@H](C)NC(=O)[C@H](CCC(=O)O)NC(=O)[C@H](CC(=O)O)NC1=O)NC(=O)[C@H](CC(C)C)NC(=O)[C@H](CC(=O)O)NC2=O (stereo partly drawn) [I-505, Ac-PL3-Asp-Leu-B5-Asp-Glu-Ala-Ala-Phe-Gln-S8-Phe-BztA-Gln-NH2] | 2.259 | – | – | – | 50 µM (≈ 94.2 µg/mL) | 4.9 µM | – | – | 5.6 µM | IC50 ([1]; Abs IC50, read-out: DLD1 reporter assay Abs IC50): 10.8 µM; IC50 ([1]; read-out: DLD1 4% Abs IC50, DLD1 4%, absolute IC50): 9.4 µM; IC50 ([2]; fluorescence polarization, read-out: beta-Catenin FP IC50): 0.023 µM; IC50 ([2]; read-out: FP EC50): 0.023 µM; IC50 ([3]; Abs IC50, read-out: NanoBRET Abs IC50): 4.9 µM
